According to patent US20180125988A1, “TARGETED XTEN CONJUGATE COMPOSITIONS AND METHODS OF MAKING SAME” (AMUNIX OPERATING INC., priority 2014, published 2018):
Where a SMILES comes first, the peptide text is derived from it. [ ]: non-standard residue; d: D form. The star is where a group is joined. Dolaproine = CO[C@@H]([C@@H]1CCCN1)[C@@H](C)C(=O)O; Dil = CC[C@H](C)[C@H](NC)[C@@H](CC(=O)O)OC; X1 = C[C@@H](N*)[C@@H](O)c1ccccc1; NMeV = CN[C@H](C(=O)O)C(C)C

Legend:
[1] = system: folate receptor-positive KB cell line; assay: CellTiter-Glo anti-proliferation assay, 3xFA(γ),3xMMAE-XTEN on KB cells with or without folic acid competitor; assay type: cell-based; settings: Homo sapiens, no folic acid competitor
Method: The ability to selectively target and kill cells bearing folate receptors was evaluated. Test articles of free MMAE, a non-targeting 3xMMAE-XTEN conjugate (XTEN linked to toxin) and the folate receptor-targeted 3xFA(γ),3xMMAE-XTEN conjugate were evaluated in a CellTiter-Glo anti-proliferation assay using the folate receptor-positive KB cell line. As culture media contain high folic acid content, KB cells were grown in folic acid-free media containing 10% heat-inactivated fetal calf serum at 37° C., 5% CO2 for at least 7 days prior to the commencement of the cell viability experiment, This medium was also utilized for the execution of the experiment. In brief, KB cells were plated at 10,000 cells per well onto a 96-well microtiter assay plate. KB cells were allowed to adhere to the plate by an overnight incubation at 37° C., 5% CO2. The spent media was then removed and wells designated to contain folic acid competitor received assay medium containing folic acid, while wells not designated to have folic acid competitor received assay medium only. The plate was incubated for 30 min at 37° C., 5% CO2 before the assay media was aspirated and plate washed with assay media. […] After the appropriate incubation period, CellTiter-Glo reagent was added and the plate was read on a luminometer. The IC50 of each test article was determined using a 4 parameter logistic curve fit using GraphPad Prism.

[2] = in Man; cited from earlier work

Molecule	IC50 [1] [nM]	half-life [2]
CC[C@H](C)[C@@H]([C@@H](CC(=O)N1CCC[C@H]1[C@H](OC)[C@@H](C)C(=O)N[C@H](C)[C@@H](O)c1ccccc1)OC)N(C)C(=O)[C@@H](NC(=O)[C@@H](NC)C(C)C)C(C)C [MMAE, monomethyl auristatin E] (H-[NMeV]V[Dil][Dolaproine]-X1)	0.8	–
pyroGlu-His-Trp-Ser-Tyr-Gly-Leu-Arg-Pro-Gly-NH2 [LHRH]	–	less than 4 minutes
